Read-outs that look alike come from different tables or passages of the source.
How the values were obtained:
rat osteocalcin promoter = experiment: OCN (osteocalcin) promoter assay; assay type: cell-based; conditions: Rattus norvegicus, RG-15 (ROS 17/2.8) cells
Method: 3. The OCN (Osteocalcin) Promoter Assay
The OCN Promoter Assay is an indicator and marker for osteoporosis. […] Preferred assay results are less than 50 nM.
(3) Materials and Method for The OCN Promoter Assay:
The activation of osteocalcin by VDR ligands was evaluated in a rat osteoblast-like cell line RG-15 (ROS 17/2.8) stably expressing rat osteocalcin promoter fused with luciferase reporter gene. […] Confluent RG-15 cells maintained in DMEM/F-12 medium (3:1) containing 5% FBS, 300 μg/ml G418 and at 37° C. under 5% CO2/95% air atmosphere were trypsinized (0.25% trypsin) and plated into white opaque 96-well cell culture plates (25000 cells/well). After 24 hr, cells (in DMEM/F-12 medium+2% FBS) were treated with various concentrations of compounds, dissolved in DMSO. The final DMSO concentration remained at 0.01% (v/v). After 48 hr treatment, the medium was removed, cells were lysed with 50 μl of lysis buffer (From Luciferase reporter assay system, Roche Diagnostics, Indianapolis, Ind.) and assayed for luciferase activity using the Luciferase Reporter Gene Assay kit from Boehringer Mannheim as per manufacturer's specifications.

RXR-VDR heterodimer = target: T1, RXR-VDR heterodimer (Homo sapiens, UniProt P11473); experiment: RXR-VDR heterodimerization assay (SaOS-2 cells); assay type: cell-based; conditions: Gal4-RXR-DEF/VP16-VDR-LBD luciferase reporter, several values in a cell separated by /
T1 construct: Add the Gal4-RXR-DEF and VP16-VDR-LBD; expressed in transfected cells; host or cells: SaOS-2 cells
T1 sequence (P11473 127-423 limits assumed): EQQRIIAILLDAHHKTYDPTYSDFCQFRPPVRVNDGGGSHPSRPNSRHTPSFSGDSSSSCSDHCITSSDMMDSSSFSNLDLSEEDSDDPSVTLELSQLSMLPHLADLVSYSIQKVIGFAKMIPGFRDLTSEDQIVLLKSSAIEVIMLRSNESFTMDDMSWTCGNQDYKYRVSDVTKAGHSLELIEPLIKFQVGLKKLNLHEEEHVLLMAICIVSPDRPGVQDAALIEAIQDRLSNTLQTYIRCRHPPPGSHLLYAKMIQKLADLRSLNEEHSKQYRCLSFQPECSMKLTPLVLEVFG
T1 sequence (P19793 201-462 partner limits assumed): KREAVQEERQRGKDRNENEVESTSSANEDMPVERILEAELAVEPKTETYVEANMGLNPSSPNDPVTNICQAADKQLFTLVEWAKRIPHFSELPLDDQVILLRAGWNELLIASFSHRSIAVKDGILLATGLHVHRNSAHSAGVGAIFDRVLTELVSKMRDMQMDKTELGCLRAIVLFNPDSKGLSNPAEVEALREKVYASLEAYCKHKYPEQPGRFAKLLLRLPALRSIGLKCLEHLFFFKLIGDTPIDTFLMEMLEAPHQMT
Method: 1. The RXR-VDR Heterodimer Assay:
This assay provides the VDR activity of a test compound.
(1) Materials and Method for RXR-VDR Heterodimerization Assay:
Luciferase Assay Reagent: • Use Steady-Glo Luciferase Reagent from Promega (Cat #E2550) Consists of: a. E2533 Assay Substrate, lyopholized product and b. E2543 Assay Buffer. • Thaw at room temperature • Store Cell Harvesting Aspirate media from culture flask, rinse cells with HBSS and aspirate. Add trypsin and incubate. When cells appear detached, resuspend cells in growth media. Transfer into a new flask with fresh growth media for passaging the cells. Plate well plates and two extra plates A. Cell Count Mix the cell suspension using pipette Use Hematocytometer to count the cells Load cell suspension onto the hemocytometer chamber Count cells. […] In sterile flask add cell suspension to plating media. Mix. Add cells/well. Place the cells in the incubator. Cells should be about 75% confluent prior to transfection. DAY 2: Transfection Step 1: DNA and Media Add plain DMEM media to tubes for mixing the DNA Add the Reporter gene pFR-LUC Add the Gal4-RXR-DEF and VP16-VDR-LBD Step 2: FuGENE and Media Prepare plain DMEM media in a ubes for mixing FuGENE Add FuGENE 6 Transfection Reagent Incubate Step 3: FuGENE, DNA and Media Complex Add FuGENE Media complex from step 2 to DNA Media complex from step 1 Incubate Step 4: FuGENE, DNA and Media Complex to-well plate Add FuGENE-DNA-Media complex from step 3 to each plate Incubate. […] Day 4: Luciferase Assay Read the plates after drug treatment Remove part of media from all the wells and leave remainder Add Steady-Glo Luciferase Reagent mixture/wells Incubate Count each well using a Luminescence counter, Top Count NXT by Packard
Set a delay between plates to reduce the background.

KERtr cells = experiment: Keratinocyte proliferation assay; assay type: cell-based; conditions: Homo sapiens, read-out: Kera. Prolif. IC50
Method: 5. The Keratinocyte Proliferation Assay
This Assay is indicative for the treatment of psoriasis.
(5) The Keratinocyte Proliferation Assay:
KERtr cells (Human skin keratinocyte transformed with a retrovirus vector, obtained from ATCC) were plated in 96-well flat-bottomed plates (3000 cells/well) in 100 μl keratinocyte serum free medium supplemented with bovine pituitary extract in the absence of EGF (Life Technologies, Rockville, Md.) and incubated at 37° C. for two days. The cells were treated with various concentrations of VDR ligands (ten-fold serial dilution from 10,000 nM to 0.1 nM in triplicate), dissolved in 100 μl keratinocyte serum free medium supplemented with bovine pituitary extract in the absence of EGF and incubated at 37° C. for 72 hr. […] Potency values (IC50) values were determined as the concentration (nM) of compound that elicited a half-maximal response.

IL-10 = IL-10 induction assay; assay type: cell-based; conditions: Homo sapiens, PBMC
Source text: 6. The IL-10 Induction Assay
This is an in vitro efficacy assay for psoriasis, abscess and adhesion. Psoriasis involves both keratinocytes and immune cells. IL-10 is a unique cytokine because it is anti-inflammatory and immunosuppressive. This assay tells us whether a VDRM is able to function as an agonist in PBMCs ([…]) or not.
(6) Materials and Method for Human IL-10 Induction Assay:
Isolation of Peripheral Blood Mononuclear Cells (PBMCs):
B. Prepare sterile tubes with ficol.
C. Add diluted blood to tubes.
E. Discard the top layer and collect the cells from middle layer.
F. Divide all cells into four tubes and add media.
H. Aspirate off media and resuspend.
J. Centrifuge. at 1200 rpm for 10 minutes.
M. Dissolve PHA in water.
N. Plate TPA/PHA treated PBMCs in well plates.
Sample Collection and Assay:
S. Remove all the cells by centrifugation and assay the supernatant for IL-10 by immunoassay.
1) T. Perform […] using anti-human IL-10 antibody coated beads, as described by the manufacturer (Linco Research Inc., St. Charles, Mo.).

VDR = target: T2, VDR (Homo sapiens, UniProt P11473); experiment: VDR CTF (Caco-2 cell co-transfection) assay; assay type: cell-based; conditions: Caco-2 cells, pGal4-VDR-LBD co-transfection, luciferase; several values separated by /
T2 construct: the receptor expression vector pGal4-VDR-LBD (10 ng); expressed in transfected cells; host or cells: Caco-2 cells
T2 sequence (P11473 127-423 limits assumed): T1 sequence (P11473 127-423 limits assumed)
Method: 2. The Caco-2 Cell Co-Transfection Assay:
The Caco-2 cell assay is an indicator for the undesirable condition of hypercalcemia. This co-transfection assay is a surrogate assay for in vivo calcemic activity of VDR ligands. […] Preferred assay results are greater than 1000 nM.
(2) Materials and Method for the Caco-2 Cell Assay:
Caco-2 cells, grown in phenol red free, DMEM (Invitrogen, Carlsbad, Calif.) containing 10% charcoal-stripped FCS (Hyclone, Logan, Utah), were transfected with Fugene 6 reagent (Roche Diagnostics, Indianapolis, Ind.). Cells (5000/well) were plated 18 h before transfection in a 96 well plate. The Cells were transfected with Gal4-responsive reporter pFRLuc (150 ng, Stratagene, La Jolla Calif.) and the receptor expression vector pGal4-VDR-LBD (10 ng), along with Fugene 6 reagent (0.2 μl/well). The DNA-Fugene complex was formed by incubating the mixture for 30 min at room temperature. The cells were transfected in triplicate for 5 h, and treated with various concentrations of VDR ligands (form 0.01 nM to 10,000 nM concentration range) 18 h post-transfection. The luciferase activity was quantified using Steady-Glo reagent kit (Promega, Madison, Wis.) as per manufacturer's specifications.

female DBF mice = experiment: Mouse hypercalcemia assay; conditions: oral gavage for 6 days; serum ionized calcium 6 hours after last dosing
Source text: The Mouse Hypercalcemia Assay
The Mouse Hypercalcemia Assay is a six day hypercalcemia test for toxicity and selectivity.
(4) Materials and Method for the Mouse Hypercalcemia Assay:
Weanling, virus-antibody-free, five to six weeks old female DBF mice (Harlan, Indianapolis, Ind.) are used for all the studies. Animals are allowed to acclimate to local vivarium conditions for 2 days. […] The animals then are divided into groups with 4-5 mice per group. Different doses of test compounds prepared in 10% Ethanol and 90% sesame oil are administered to mice orally via gavage for 6 days. 1α-25(OH)2D3 0.5 μg/kg/d was also given to one group of mice as the positive control. […] Raw data of group differences is assessed by analysis of variance (ANOVA) using Fisher's protected least significant difference (PLSD) where the significance level was P<0.05.

[1] = 48 h, 48 hr treatment, luciferase, several values separated by /
[2] = 72 h, BrdU incorporation, several values separated by /
[3] = TPA/PHA stimulated human PBMCs, IL-10 in supernatant by immunoassay, several values separated by /

Structure (SMILES) | EC50 (rat osteocalcin promoter; [1]) [nM] | EC50 (RXR-VDR heterodimer) [nM] | IC50 (KERtr cells; [2]) [nM] | IC50 (IL-10; [3]) [nM] | EC50 (VDR) [nM] | Mouse Hypercal (female DBF mice) [µg/kg/day] | EC50 (rat osteocalcin promoter; comparison compounds) [nM] | IC50 (KERtr cells; comparison compounds) [nM] | IC50 (IL-10; comparison compounds, human PBMCs) [nM]
CCC(CC)(c1ccc(OCC(O)C(C)(C)C)c(C)c1)c1ccc2oc(C(=O)O)cc2c1 (stereo not drawn) [Ex 31, 5-{1-ethyl-1-[4-(2-hydroxy-3,3-dimethyl-butoxy)-3-methyl-phenyl]-propyl}-benzofuran-2-carboxylic acid] | 0.5 | 12 | 1 | 5.4 | 279 | – | – | – | –
CCC(CC)(c1ccc(OCC(=O)C(C)(C)C)c(C)c1)c1ccc2oc(C(=O)NCC(=O)O)c(C)c2c1 [Ex 38, [(5-{1-[4-(3,3-dimethyl-2-oxo-butoxy)-3-methyl-phenyl]-1-ethyl-propyl}-3-methyl-benzofuran-2-carbonyl)-amino]-acetic acid] | 0.5 | – | 22 | – | 314 | >30 | – | – | –
CCC(CC)(c1ccc(OCC(=O)C(C)(C)C)c(C)c1)c1cc2cc(C(=O)O)ccc2o1 [Ex. 2] | 3 | 75 | 12 | – | 677 | >1000 | – | – | –
CCC(CC)(c1ccc(OCC(=O)C(C)(C)C)c(C)c1)c1cc2cc(C(=O)Nc3nn[nH]n3)ccc2o1 [Ex. 11, 2-{1-[4-(3,3-dimethyl-2-oxo-butoxy)-3-methyl-phenyl]-1-ethyl-propyl}-benzofuran-5-carboxylic acid (2H-tetrazol-5-yl)-amide] | – | 730 | 9 | > 2000 | 819 | >1000 | – | – | –
CCc1cc(C(CC)(CC)c2cc3cc(C(=O)O)ccc3o2)ccc1OCC(=O)C(C)(C)C [Ex. 12] | 0.7 | – | 16 | 49 | 515 | >1000 | – | – | –
C=C1/C(=C\C=C2/CCC[C@]3(C)[C@@H]([C@H](C)/C=C/[C@@H](O)C4CC4)CC[C@@H]23)C[C@@H](O)C[C@@H]1O [FF, calcipotriol, reference compound] | – | – | – | – | – | – | 0.28 | 103 | 0.5

Reference: US7579488B2 (Eli Lilly and Company, priority 2003, dated 2009)
